Patent US8796244B2, “Imidazopyridine derivatives as inhibitors of receptor tyrosine kinases” (Astex Therapeutics Ltd, priority 2008, dated 2014)
Counter-ions that a name gives are not always drawn. Like-named read-outs stand apart in the source and are kept apart here.

Columns and labels:
VEGFR2 = VEGFR2 (Homo sapiens (Human), UniProt P35968); assay: VEGFR2 in vitro kinase inhibitory activity assay (TRF, Flt3 substrate); format: biochemical; conditions: 1 h, read-out: VEGFR2 % I
[1] = system: parental wild-type Ba/F3 cells; assay: Ba/F3 (WT) cell proliferation assay (Alamar Blue); format: cell-based; conditions: Mus musculus; for inhibition at 3 µM / inhibition at 1 µM / inhibition at 10 µM: BaF3, read-out: BaF3 WT prolif, % inhibition
[2] = system: LP-1 cell line (FGF-1/Heparin induced pERK); assay: Cell-based pERK ELISA, LP-1 cells; conditions: Homo sapiens; for IC50: LP-1, read-out: LP-1 pERK ELISA (μM)
[3] = BaF3, 72 hours, Alamar Blue, read-out: BaF3 WT prolif
[4] = BaF3, 72 h, read-out: BaF3 WT prolif (μM)

VEGFR2, sequence (P35968 20-1356): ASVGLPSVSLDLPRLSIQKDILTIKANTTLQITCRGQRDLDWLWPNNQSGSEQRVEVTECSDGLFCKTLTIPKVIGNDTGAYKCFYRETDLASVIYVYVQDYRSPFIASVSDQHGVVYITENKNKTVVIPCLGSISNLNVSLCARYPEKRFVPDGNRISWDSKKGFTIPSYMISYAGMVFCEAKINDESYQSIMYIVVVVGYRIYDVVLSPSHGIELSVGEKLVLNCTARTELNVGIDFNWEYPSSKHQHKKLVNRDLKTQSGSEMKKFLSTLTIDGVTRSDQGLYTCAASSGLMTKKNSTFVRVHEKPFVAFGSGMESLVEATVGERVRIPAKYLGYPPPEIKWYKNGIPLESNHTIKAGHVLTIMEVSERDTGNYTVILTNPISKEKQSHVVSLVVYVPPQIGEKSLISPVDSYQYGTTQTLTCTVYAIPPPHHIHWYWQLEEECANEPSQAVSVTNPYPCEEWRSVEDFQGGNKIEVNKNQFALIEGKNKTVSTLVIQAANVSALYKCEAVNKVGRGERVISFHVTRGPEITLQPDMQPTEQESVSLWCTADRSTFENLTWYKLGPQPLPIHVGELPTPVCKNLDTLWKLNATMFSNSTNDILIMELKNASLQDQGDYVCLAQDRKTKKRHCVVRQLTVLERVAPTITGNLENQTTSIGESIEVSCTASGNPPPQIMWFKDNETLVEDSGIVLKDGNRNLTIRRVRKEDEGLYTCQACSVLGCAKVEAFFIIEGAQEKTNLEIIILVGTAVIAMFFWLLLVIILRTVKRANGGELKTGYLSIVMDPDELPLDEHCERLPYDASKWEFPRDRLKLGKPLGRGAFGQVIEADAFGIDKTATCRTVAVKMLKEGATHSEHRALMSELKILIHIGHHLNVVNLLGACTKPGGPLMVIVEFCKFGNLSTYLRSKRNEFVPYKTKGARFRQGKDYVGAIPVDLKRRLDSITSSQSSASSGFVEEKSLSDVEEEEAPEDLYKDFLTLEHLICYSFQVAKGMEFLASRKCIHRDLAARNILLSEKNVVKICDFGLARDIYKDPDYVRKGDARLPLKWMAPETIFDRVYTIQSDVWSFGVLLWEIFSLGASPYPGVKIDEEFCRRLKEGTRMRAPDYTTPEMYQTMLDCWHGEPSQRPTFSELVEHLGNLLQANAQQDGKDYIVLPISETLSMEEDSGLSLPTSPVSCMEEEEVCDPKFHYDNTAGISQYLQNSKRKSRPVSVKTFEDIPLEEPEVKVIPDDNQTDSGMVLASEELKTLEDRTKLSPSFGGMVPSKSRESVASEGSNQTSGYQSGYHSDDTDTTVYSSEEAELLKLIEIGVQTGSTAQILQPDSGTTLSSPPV

| Structure (SMILES) | IC50 [1, 3] [µM] | inhibition at 10 µM [1] [%] | IC50 [2] [µM] | also measured |
| --- | --- | --- | --- | --- |
| O=C(NCC(F)(F)F)Nc1cc(OC2CCCC2)cc(-c2cnc3cc(-c4ncccn4)ccn23)c1 [Compound 284] | 3.4 | – | – | inhibition at 10 µM (VEGFR2; at 10 μM): 62%; inhibition at 3 µM [1]: 14% |
| COCCOc1cc(NC(=O)NCC(F)(F)F)cc(-c2cnc3cc(-c4ncc(F)c(N)n4)ccn23)c1 [Compound 285] | – | 10 | – | inhibition at 3 µM (VEGFR2; at 3 μM): 51%; inhibition at 1 µM [1]: 12% |
| Cc1cc(NC(=O)NCC(F)(F)F)cc(-c2cnc3cc(-c4ncc(F)c(N)n4)ccn23)c1 [Compound 291] | – | – | – | inhibition at 0.98 µM (VEGFR2; at 0.98 μM): 57%; inhibition at 1 µM [1]: 24% |
| Cc1cc(NC(=O)NCC(F)(F)F)cc(-c2cnc3cc(-c4ccnc(C(F)(F)F)n4)ccn23)c1 [Compound 306] | – | 0 | – | inhibition at 1 µM (VEGFR2): 60% |
| Nc1nc(-c2ccn3c(-c4cc(NC(=O)NCC(F)(F)F)ccc4F)cnc3c2)ncc1F [Compound 311] | – | 32 | – | inhibition at 0.978 µM (VEGFR2; at 0.978 μM): 20%; inhibition at 3 µM [1]: 2% |
| Cc1cncc(-c2ccn3c(-c4cccc(NC(=O)NCC(F)(F)F)c4)cnc3c2)n1 [Example 100, 1-{3-[7-(6-Methyl-pyrazin-2-yl)-imidazo[1,2-a]pyridin-3-yl]-phenyl}-3-(2,2,2-trifluoro-ethyl)-urea] | 0.97 | – | 0.09 | – |
| COc1cccc(-c2ccn3c(-c4cccc(NC(=O)NCC(F)(F)F)c4)cnc3c2)n1 [Example 101, 1-{3-[7-(6-Methoxy-pyridin-2-yl)-imidazo[1,2-a]pyridin-3-yl]-phenyl}-3-(2,2,2-trifluoro-ethyl)-urea] | 0.16 | – | 0.055 | – |
| Nc1nc(-c2ccn3c(-c4cccc(NC(=O)NCC(F)(F)F)c4)cnc3c2)ncc1F [Example 102, 1-{3-[7-(4-Amino-5-fluoro-pyrimidin-2-yl)-imidazo[1,2-a]pyridin-3-yl]-phenyl}-3-(2,2,2-trifluoro-ethyl)-urea bis-hydrochloride] | – | – | 0.0939 | IC50 [1, 4]: 2.3 µM |
| Nc1ccnc(-c2ccn3c(-c4cccc(NC(=O)NCC(F)(F)F)c4)cnc3c2)c1 [Example 108, 1-{3-[7-(4-Amino-pyridin-2-yl)-imidazo[1,2-a]pyridin-3-yl]-phenyl}-3-(2,2,2-trifluoro-ethyl)-urea diformate] | – | 46 | 1.2 | – |
| Nc1ccnc(-c2ccn3c(-c4cccc(NC(=O)NCC(F)(F)F)c4)cnc3c2)n1 [Example 110, 1-{3-[7-(4-Amino-pyrimidin-2-yl)-imidazo[1,2-a]pyridin-3-yl]-phenyl}-3-(2,2,2-trifluoro-ethyl)-urea] | – | 43 | 0.0917 | – |
| O=C(NCC(F)(F)F)Nc1cccc(-c2cnc3cc(-c4ccc(CCO)cc4)ccn23)c1 [Example 111, 1-(3-{7-[4-(2-Hydroxy-ethyl)-phenyl]-imidazo[1,2-a]pyridin-yl}-phenyl)-3-(2,2,2-trifluoro-ethyl)-urea formate] | – | – | 0.016 | IC50 [1, 4]: 0.18 µM |
| CN(C)c1ccc(-c2ccn3c(-c4cccc(NC(=O)NCC(F)(F)F)c4)cnc3c2)nn1 [Example 113, 1-{3-[7-(6-Dimethylamino-pyridazin-3-yl)-imidazo[1,2-a]pyridin-3-yl]-phenyl}-3-(2,2,2-trifluoro-ethyl)-urea formate] | – | – | 0.016 | IC50 [1, 4]: 1.4 µM |
| O=C(NCC(F)(F)F)Nc1cccc(-c2cnc3cc(-c4ncccn4)ccn23)c1 [Example 114, 1-{3-[7-(Pyrimidin-2-yl)-imidazo[1,2-a]pyridin-3-yl]-phenyl}-3-(2,2,2-trifluoro-ethyl)-urea hydrochloride] | – | – | 0.047 | IC50 [1, 4]: 0.65 µM |
| Nc1ccc(-c2ccn3c(-c4cccc(NC(=O)NCC(F)(F)F)c4)cnc3c2)nc1 [Example 124, 1-{3-[7-(5-Amino-pyridin-2-yl)-imidazo[1,2-a]pyridin-3-yl]-phenyl}-3-(2,2,2-trifluoro-ethyl)-urea hydrochloride] | – | – | 0.024 | IC50 [1, 4]: 0.27 µM |
| O=C(NCC(F)(F)F)Nc1cccc(-c2cnc3cc(-c4ccc(=O)n(CCO)n4)ccn23)c1 [Example 126, 1-(3-{7-[1-(2-Hydroxy-ethyl)-6-oxo-1,6-dihydro-pyridazin-3-yl]-imidazol[1,2-a]pyridin-3-yl}-phenyl)-3-(2,2,2-trifluoro-ethyl)-urea] | – | 3.7 | 0.98 | – |
| CNc1ccc(-c2ccn3c(-c4cccc(NC(=O)NCC(F)(F)F)c4)cnc3c2)nn1 [Example 132, 1-{3-[7-(6-Methylamino-pyridazin-3-yl)-imidazo[1,2-a]pyridin-3-yl]-phenyl}-3-(2,2,2-trifluoro-ethyl)-urea] | – | 22.9 | 0.172 | – |
| O=C(NCC(F)(F)F)Nc1cccc(-c2cnc3cc(-c4ccc(N5CCCC(O)C5)nn4)ccn23)c1 (stereo not drawn) [Example 133, 1-(3-{7-[6-(3-Hydroxy-piperidin-1-yl)-pyridazin-3-yl]-imidazo[1,2-a]pyridin-3-yl}-phenyl)-3-(2,2,2-trifluoro-ethyl)-urea] | – | 31 | 0.0714 | inhibition at 3 µM [1]: 34% |
| Cc1cnnc(-c2ccn3c(-c4cccc(NC(=O)NCC(F)(F)F)c4)cnc3c2)c1 [Example 137, 1-{3-[7-(5-Methyl-pyridazin-3-yl)-imidazo[1,2-a]pyridin-3-yl]-phenyl}-3-(2,2,2-trifluoro-ethyl)-urea] | – | 23 | 0.034 | – |
| COc1cnc(-c2ccn3c(-c4cccc(NC(=O)NCC(F)(F)F)c4)cnc3c2)nc1 [Example 138, 1-{3-[7-(5-Methoxy-pyrimidin-2-yl)-imidazo[1,2-a]pyridin-3-yl]-phenyl}-3-(2,2 ,2-trifluoro-ethyl)-urea] | – | – | 0.038 | inhibition at 3 µM [1]: 36% |
| O=C(NCC(F)(F)F)Nc1cccc(-c2cnc3cc(-c4nccnn4)ccn23)c1 [Example 141, 1-[3-(7-[1,2,4]-Triazin-3-yl-imidazo[1,2-a]pyridin-3-yl)-phenyl]-3-(2,2,2-trifluoro-ethyl)-urea] | 0.042 | – | 0.11 | – |
| CN(C)CCCOc1ccc(-c2ccn3c(-c4cccc(NC(=O)NCC(F)(F)F)c4)cnc3c2)cn1 [Example 144, 1-(3-{7-[6-(3-Dimethylamino-propoxy)-pyridin-3-yl]-imidazo[1,2-a]pyridin-3-yl}-phenyl)-3-(2,2,2-trifluoro-ethyl)-urea] | 3.6 | – | 0.13 | – |

| Structure (SMILES) | IC50 [1, 3] [µM] | inhibition at 10 µM [1] [%] | IC50 [2] [µM] | also measured |
| --- | --- | --- | --- | --- |
| O=C(NCC(F)(F)F)Nc1cncc(-c2cnc3cc(-c4cnn(C5CCNCC5)c4)ccn23)c1 [Example 152, 1-{5-[7-(1-Piperidin-4-yl-1H-pyrazol-4-yl)-imidazo[1,2-a]pyridin-3-yl]-pyridin-3-yl}-3-(2,2,2-trifluoro-ethyl)-urea] | – | 10 | 3.3 | – |
| NC(=O)Nc1cccc(-c2cnc3cc(-c4ccc(F)cc4)ccn23)c1 [Example 154, {3-[7-(4-Fluoro-phenyl)-imidazo[1,2-a]pyridin-3-yl]-phenyl}-urea] | 5.6 | – | 0.086 | – |
| Cc1cc(C)nc(-c2ccn3c(-c4cccc(NC(=O)NCC(F)(F)F)c4)cnc3c2)n1 [Example 160] | – | – | – | inhibition at 1 µM (VEGFR2): 49.5% |
| CNc1ncc(-c2ccn3c(-c4cccc(NC(=O)NCC(F)(F)F)c4)cnc3c2)cc1C [Example 161] | 0.15 | – | 0.01 | – |
| CCNC(=O)Nc1cccc(-c2cnc3cc(-c4ncc(F)c(N)n4)ccn23)c1 [Example 163] | – | 11 | 0.22 | inhibition at 3 µM [1]: 38% |
| O=C(NCC(F)(F)F)Nc1cccc(-c2cnc3cc(-c4ncc(F)c(NCCO)n4)ccn23)c1 [Example 164] | 4.2 | – | 0.26 | – |
| Nc1nc(-c2ccn3c(-c4cccc(NC(=O)NC5CC5)c4)cnc3c2)ncc1F [Example 166] | – | 0 | 0.29 | – |
| NC(=O)Nc1cccc(-c2cnc3cc(-c4ncc(F)c(N)n4)ccn23)c1 [Example 167] | – | 0 | – | inhibition at 10 µM ([2]; LP-1, read-out: LP-1 pERK ELISA, % inhibition): 60% |
| Nc1nc(-c2ccn3c(-c4cncc(NC(=O)NCC(F)(F)F)c4)cnc3c2)ncc1F [Example 168] | – | 0 | 0.43 | – |
| COc1cnc(-c2ccn3c(-c4cccc(NC(=O)NCC(F)(F)F)c4)cnc3c2)nc1N [Example 173] | – | 22 | 0.052 | inhibition at 3 µM [1]: 29.5% |
| Nc1cnc(-c2ccn3c(-c4cccc(NC(=O)NCC(F)(F)F)c4)cnc3c2)nc1 [Example 174] | 1.5 | – | 0.49 | – |
| Cc1cnc(-c2ccn3c(-c4cccc(NC(=O)NCC(F)(F)F)c4)cnc3c2)nc1N [Example 175] | 10 | – | 0.077 | – |
| Cc1cnc(N)nc1-c1ccn2c(-c3cccc(NC(=O)NCC(F)(F)F)c3)cnc2c1 [Example 176] | – | 59 | 0.33 | – |
| Nc1nc(-c2ccn3c(-c4cccc(NC(=O)NCC(F)(F)F)c4)cnc3c2)ncc1C(F)(F)F [Example 178] | 4.52 | – | 0.018 | – |
| COc1nccc(-c2ccn3c(-c4cccc(NC(=O)NCC(F)(F)F)c4)cnc3c2)n1 [Example 181] | 0.49 | – | 0.046 | – |
| NCCNc1nc(-c2ccn3c(-c4cccc(NC(=O)NCC(F)(F)F)c4)cnc3c2)ncc1F [Example 182] | 10 | – | 2.5 | – |
| COc1cc(-c2ccn3c(-c4cccc(NC(=O)NCC(F)(F)F)c4)cnc3c2)ncn1 [Example 183] | 0.29 | – | 0.028 | – |
| NC(=O)c1ccnc(-c2ccn3c(-c4cccc(NC(=O)NCC(F)(F)F)c4)cnc3c2)n1 [Example 185] | – | – | 0.14 | inhibition at 3 µM [1]: 0% |
| O=C(NCC(F)(F)F)Nc1cccc(-c2cnc3cc(/C=C/c4ccccn4)ccn23)c1 [Example 186] | 0.32 | – | 0.019 | – |
| COc1ncc(-c2ccn3c(-c4cccc(NC(=O)NCC(F)(F)F)c4)cnc3c2)cc1C [Example 188] | 0.43 | – | 0.09 | – |
